Measurements published in the supplement of paper PMC4862054.

Assays:
DU-4475 = experiment: normalised viability (% of control), CellTiter-Blue; higher = more viable cells (about 100 = DMSO control); conditions: incubation time: 72 h
Procedure, shortened: (§1)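 Breast cancer cell lines were treated for 72 h in 384-well format and measured by CellTiter-Blue fluorescence at 560/590 nm. Results were normalised per plate to vehicle (100) and a positive kill control (0). The entry is normalised viability at a single listed concentration of the series.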

CAL-51 = experiment: as above; conditions: incubation time: 72 h
Procedure, shortened: as §1

CAL-120 [1] = experiment: as above; conditions: incubation time: 72 h
Procedure, shortened: as §1

HCC1143 = experiment: as above; conditions: incubation time: 72 h
Procedure, shortened: as §1

HCC1937 [2] = experiment: as above; conditions: incubation time: 72 h
Procedure, shortened: as §1

BT-549 [3] = experiment: as above; conditions: incubation time: 72 h
Procedure, shortened: as §1

SK-BR-3 [4] = experiment: as above; conditions: incubation time: 72 h
Procedure, shortened: as §1

CAL-148 = experiment: as above; conditions: incubation time: 72 h
Procedure, shortened: as §1

MDA-MB-231 = experiment: as above; conditions: incubation time: 72 h
Procedure, shortened: as §1

HCC1599 = experiment: as above; conditions: incubation time: 72 h
Procedure, shortened: as §1

Hs578T = experiment: as above; conditions: incubation time: 72 h
Procedure, shortened: as §1

MDA-MB-468 = experiment: as above; conditions: incubation time: 72 h
Procedure, shortened: as §1

MFM-223 = experiment: as above; conditions: incubation time: 72 h
Procedure, shortened: as §1

HDQ-P1 = experiment: as above; conditions: incubation time: 72 h
Procedure, shortened: as §1

CAL-85-1 = experiment: as above; conditions: incubation time: 72 h
Procedure, shortened: as §1

MDA-MB-436 [5] = experiment: as above; conditions: incubation time: 72 h
Procedure, shortened: as §1

MDA-MB-453 = experiment: as above; conditions: incubation time: 72 h
Procedure, shortened: as §1

BT-474 = experiment: as above; conditions: incubation time: 72 h
Procedure, shortened: as §1

CAL-120 [6] = conditions: 72 h
Procedure, shortened: (§2)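 Each 384-well plate was pre-loaded with compound dissolved in 5 µl medium, received breast cancer cells in 20 µl suspension, and was incubated 72 h. A 2.5 µl addition of CellTiter-Blue for 2 h at 37 °C was followed by a fluorescence read at 560/590 nm. Data were normalised per plate to vehicle and a positive kill control and checked by Z'-factor. EC50 was fitted from the percent-inhibition dose-response curve, censored at the highest concentration, excluding rows with a drug sensitivity score of zero.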

HCC1937 [7] = conditions: 72 h
Procedure, shortened: as §2

BT-549 [8] = conditions: 72 h
Procedure, shortened: as §2

SK-BR-3 [9] = conditions: 72 h
Procedure, shortened: as §2

MDA-MB-436 [10] = conditions: 72 h
Procedure, shortened: as §2

COc1cccc2c1C(=O)c1c(O)c3c(c(O)c1C2=O)C[C@@](O)(C(=O)CO)C[C@@H]3O[C@H]1C[C@H](N)[C@H](O)[C@H](C)O1 [Doxorubicin]
normalised viability (DU-4475; 0.3 nM): 93.8% | normalised viability (DU-4475; 3 nM): 91.6% | normalised viability (DU-4475; 10 nM): 64% | normalised viability (CAL-51; 0.3 nM): 102% | normalised viability (CAL-51; 3 nM): 100% | normalised viability (CAL-51; 10 nM): 96.2% | normalised viability (CAL-120 [1]; 1 nM): 96.2% | normalised viability (CAL-120 [1]; 100 nM): 52.6% | normalised viability (CAL-120 [1]; 1000 nM): 6.93% | normalised viability (HCC1143; 1 nM): 101% | normalised viability (HCC1143; 100 nM): 60.2% | normalised viability (HCC1143; 1000 nM): 32.2% | normalised viability (HCC1937 [2]; 1 nM): 86.6% | normalised viability (HCC1937 [2]; 100 nM): 37% | normalised viability (HCC1937 [2]; 1000 nM): 22.2% | normalised viability (BT-549 [3]; 1 nM): 114% | normalised viability (BT-549 [3]; 100 nM): 76.5% | normalised viability (BT-549 [3]; 1000 nM): 5.36% | normalised viability (SK-BR-3 [4]; 1 nM): 87.9% | normalised viability (SK-BR-3 [4]; 100 nM): 41.3% | normalised viability (SK-BR-3 [4]; 1000 nM): 8.28% | normalised viability (CAL-148; 0.3 nM): 86.5% | normalised viability (CAL-148; 3 nM): 93% | normalised viability (CAL-148; 10 nM): 73.6% | normalised viability (MDA-MB-231; 1 nM): 85.1% | normalised viability (MDA-MB-231; 100 nM): 64.4% | normalised viability (MDA-MB-231; 1000 nM): 25.8% | normalised viability (HCC1599; 1 nM): 93% | normalised viability (HCC1599; 100 nM): 74.8% | normalised viability (HCC1599; 1000 nM): 59% | normalised viability (Hs578T; 1 nM): 115% | normalised viability (Hs578T; 100 nM): 71.3% | normalised viability (Hs578T; 1000 nM): 6.05% | normalised viability (MDA-MB-468; 1 nM): 99.7% | normalised viability (MDA-MB-468; 100 nM): 65.9% | normalised viability (MDA-MB-468; 1000 nM): 4.32% | normalised viability (MFM-223; 1 nM): 91.8% | normalised viability (MFM-223; 100 nM): 98% | normalised viability (MFM-223; 1000 nM): 21.4% | normalised viability (HDQ-P1; 0.3 nM): 104% | normalised viability (HDQ-P1; 3 nM): 96.8% | normalised viability (HDQ-P1; 10 nM): 93% | normalised viability (CAL-85-1; 0.3 nM): 90% | normalised viability (CAL-85-1; 3 nM): 92.3% | normalised viability (CAL-85-1; 10 nM): 90.4% | normalised viability (MDA-MB-436 [5]; 1 nM): 90.6% | normalised viability (MDA-MB-436 [5]; 100 nM): 64.5% | normalised viability (MDA-MB-436 [5]; 1000 nM): 18.2% | normalised viability (MDA-MB-453; 0.3 nM): 105% | normalised viability (MDA-MB-453; 3 nM): 102% | normalised viability (MDA-MB-453; 10 nM): 101% | normalised viability (BT-474; 1 nM): 97.3% | normalised viability (BT-474; 100 nM): 84.7% | normalised viability (BT-474; 1000 nM): 34.1% | EC50, CellTiter-Blue viability (CAL-120 [6]): 0.0964 µM | EC50, CellTiter-Blue viability (HCC1937 [7]): 0.0551 µM | EC50, CellTiter-Blue viability (BT-549 [8]): 0.196 µM | EC50, CellTiter-Blue viability (SK-BR-3 [9]): 0.0494 µM | EC50, CellTiter-Blue viability (MDA-MB-436 [10]): 0.19 µM

COc1cc(Nc2ncc3c(n2)-c2ccc(Cl)cc2C(c2c(F)cccc2OC)=NC3)ccc1C(=O)O [MLN8237]
normalised viability (DU-4475; 3 nM): 98.3% | normalised viability (DU-4475; 30 nM): 82.6% | normalised viability (DU-4475; 100 nM): 37.5% | normalised viability (CAL-51; 3 nM): 102% | normalised viability (CAL-51; 30 nM): 91.8% | normalised viability (CAL-51; 100 nM): 64.3% | normalised viability (CAL-120 [1]; 10 nM): 104% | normalised viability (CAL-120 [1]; 1000 nM): 59.8% | normalised viability (CAL-120 [1]; 10000 nM): 33.6% | normalised viability (HCC1143; 10 nM): 112% | normalised viability (HCC1143; 1000 nM): 70.7% | normalised viability (HCC1143; 10000 nM): 51.1% | normalised viability (HCC1937 [2]; 10 nM): 68% | normalised viability (HCC1937 [2]; 1000 nM): 40% | normalised viability (HCC1937 [2]; 10000 nM): 42.2% | normalised viability (BT-549 [3]; 10 nM): 103% | normalised viability (BT-549 [3]; 1000 nM): 62.6% | normalised viability (BT-549 [3]; 10000 nM): 32.6% | normalised viability (SK-BR-3 [4]; 10 nM): 87.3% | normalised viability (SK-BR-3 [4]; 1000 nM): 59.5% | normalised viability (SK-BR-3 [4]; 10000 nM): 46.8% | normalised viability (CAL-148; 3 nM): 86.7% | normalised viability (CAL-148; 30 nM): 89.9% | normalised viability (CAL-148; 100 nM): 78.1% | normalised viability (MDA-MB-231; 10 nM): 101% | normalised viability (MDA-MB-231; 1000 nM): 58% | normalised viability (MDA-MB-231; 10000 nM): 33.3% | normalised viability (HCC1599; 10 nM): 103% | normalised viability (HCC1599; 1000 nM): 87.7% | normalised viability (HCC1599; 10000 nM): 66.9% | normalised viability (Hs578T; 10 nM): 113% | normalised viability (Hs578T; 1000 nM): 59.2% | normalised viability (Hs578T; 10000 nM): 45.6% | normalised viability (MDA-MB-468; 10 nM): 96.7% | normalised viability (MDA-MB-468; 1000 nM): 42.6% | normalised viability (MDA-MB-468; 10000 nM): 35.2% | normalised viability (MFM-223; 10 nM): 79.3% | normalised viability (MFM-223; 1000 nM): 50.7% | normalised viability (MFM-223; 10000 nM): 30.8% | normalised viability (HDQ-P1; 3 nM): 102% | normalised viability (HDQ-P1; 30 nM): 82.2% | normalised viability (HDQ-P1; 100 nM): 64% | normalised viability (CAL-85-1; 3 nM): 89% | normalised viability (CAL-85-1; 30 nM): 80.6% | normalised viability (CAL-85-1; 100 nM): 69.4% | normalised viability (MDA-MB-436 [5]; 10 nM): 133% | normalised viability (MDA-MB-436 [5]; 1000 nM): 54.7% | normalised viability (MDA-MB-436 [5]; 10000 nM): 70.8% | normalised viability (MDA-MB-453; 3 nM): 91.8% | normalised viability (MDA-MB-453; 30 nM): 50.2% | normalised viability (MDA-MB-453; 100 nM): 44.3% | normalised viability (BT-474; 10 nM): 103% | normalised viability (BT-474; 1000 nM): 82.9% | normalised viability (BT-474; 10000 nM): 58.5% | EC50, CellTiter-Blue viability (CAL-120 [6]): 0.593 µM | EC50, CellTiter-Blue viability (HCC1937 [7]): 0.0246 µM | EC50, CellTiter-Blue viability (BT-549 [8]): 0.918 µM | EC50, CellTiter-Blue viability (SK-BR-3 [9]): 0.0149 µM | EC50, CellTiter-Blue viability (MDA-MB-436 [10]): 0.145 µM
